Ends that are not written are not given here.
Key:
293T cells = assay type: cell-based, human; conditions: for Effect of other salts on enhancing TAN-mediated transfection: salt in place of CaCl2
Description: 293T (human embryonic kidney) cells were grown in Dulbecco's modified Eagle's medium (Life Technologies, Rockville, Md.) supplemented with 10% FBS, 100 units/ml penicillin, and 100 μg/ml of streptomycin in a 37° C. CO2 incubator. Cells were regularly passed to maintain growth. Twenty-four hours before transfection, cells were trypsinized and plated on 96-well plates (100 μl/well) in the above medium without the antibiotics. Ten μl of fraction 2 was added to 293T cells at 15% confluency in serum-containing medium. Fluorescence microscopy was performed at 12 hours, after changing medium and washing cells.
TAN (SEQ ID NO:3) at 0.1 to 5 μg per 96-well transfection was mixed with 0.1 μg plasmid pEGFP-N1 (BD ClonTech) for 5 min, diluted in 40 μl DMEM, then added to cells. Fluorescence microscopy was performed at different time points to observe the expression of GFP as the indication of transfection event. Note that by using GFP as reporter, the total transfection efficiency was underestimated due to certain percentage of cells would not express the GFP to levels high enough for detection.
Different concentrations of TAN (SEQ ID NO:3) and CaCl2 were tested in combination for transfection. TAT (SEQ ID NO:1) and another peptide, HT 31 (a widely used PKA-anchor interaction interruption peptide) were included as controls. Generally, experiments were performed similarly as in the above examples except that peptide was added to DNA first, followed by addition of CaCl2.

[1] = system: monkey kidney cell Vero-E6; experiment: Peptide as additive to TransIt-Oligo reagent transfection of pEFGP-N1; assay type: cell-based; conditions: 0.1 μg plasmid, 96-well, about 30% confluency, increasing amount of peptide
[2] = system: approximately 300 bp PCR product linear dsDNA; experiment: Band-shift assay with short linear dsDNA (siRNA-expressing PCR product); assay type: binding; conditions: 30 min reaction, 2% gel
Description: In order to examine whether TAN could directly interact with the transfected plasmid DNA as predicted by the transfection results, band-shift assays were performed. Different amount of TAN (SEQ ID NO:3) dissolved in H2O was mixed with 0.5 μg of plasmid with or without 15 mM CaCl2, incubated for 5 min, followed by addition of 2 μl of DNA loading dye (30% glycerol), and loaded to 0.7% agarose gel. The EB-containing gel was run for about 45 min at 120 volts before the picture taken under UV lights.
The ability of TAN (SEQ ID NO:3) to bind short linear dsDNA also was examined. The DNA tested was an approximately 300 bp PCR product that is used to express small interfering RNAs (siRNAs). The experiments were done similarly to those described in Example 6, except that the reactions were allowed to proceed to 30 min and the gel was 2%. […] This difference may be due to a difference in the relative amount of DNA in each type of complex or to the structural constrains of linear versus circular DNA. […] Because these cassettes express siRNAs under the control of Pol III promoter as apposed to Pol II in GFP expression unit, it is therefore likely that peptide assisted transfection (PAT) is independent of promoter used, as expected.

[Cl-].[Na+] [NaCl]
Effect of other salts on enhancing TAN-mediated transfection (293T cells): showed no effect

[Cl-].[Cl-].[Mg+2] [MgCl2]
Effect of other salts on enhancing TAN-mediated transfection (293T cells): showed no effect

YGRKKRRQRRRGQRNPNKKWS [TAN]
Toxicity to treated cells (growth arrest, cell death) (293T cells; peptide/Ca++ transfection): did not show arrest of growth or cell death

YGRKKRRQRRR [TAT]
Effect of control peptide together with CaCl2 (293T cells; control peptides with CaCl2 and DNA): caused cells to lyse | Enhancement of TransIt-Oligo transfection by peptide [1]: did not show such enhancement | Behaviour at slightly increased concentration [2]: quickly precipitated DNA | Binding to linear dsDNA (band shift) [2]: did not bind at the lower concentrations
